Assay results as given in PubChem BioAssay AID330 (DTP/NCI, 2004).
“And” between values parts separate entries of the source, which are not always exact repeats. Identical values can stand only once. Inconclusive results and toxic doses are left out.

System: P388 leukemia ip, CD2F1 mice, survival T/C
Assay: NCI In Vivo Anticancer Drug Screen. Data for tumor model P388 Leukemia (intraperitoneal) in CD2F1 (CDF1) mice
Details: endpoint: median survival time, higher = longer survival
Procedure, shortened: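 Mice carrying the transplanted tumor received test compound or vehicle. Survival was recorded in each group, and the value is the treated-group measurement divided by that of the vehicle-treated control group.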

## O=C1NC2(CCCCC2)C(=O)N1CCN(CCCl)CCCl
dose: 0.62 mg/kg/injection, schedule: Q01DX005 (iv), vehicle: other
  T/C: 108 % of control
dose: 0.75 mg/kg/injection, schedule: Q01DX009 (ip), vehicle: saline
  T/C: 112 % of control and 114 % of control and 122 % of control
dose: 1.25 mg/kg/injection, schedule: Q01DX001 (iv), vehicle: other
  T/C: 112 % of control
dose: 1.25 mg/kg/injection, schedule: Q01DX001 (oral), vehicle: other
  T/C: 101 % of control
dose: 1.25 mg/kg/injection, schedule: Q01DX005 (iv), vehicle: other
  T/C: 116 % of control
dose: 1.25 mg/kg/injection, schedule: Q01DX009 (ip), vehicle: saline with Tween-80
  T/C: 124 % of control
dose: 1.5 mg/kg/injection, schedule: Q01DX005 (ip), vehicle: saline
  T/C: 118 % of control and 119 % of control
dose: 1.5 mg/kg/injection, schedule: Q01DX005 (ip), vehicle: suspension in saline
  T/C: 119 % of control
dose: 1.5 mg/kg/injection, schedule: Q01DX005 (iv), vehicle: suspension in saline
  T/C: 101 % of control
dose: 1.5 mg/kg/injection, schedule: Q01DX009 (ip), vehicle: Klucel (hydroxypropylcellulose) (HPC)
  T/C: 164 % of control
dose: 1.5 mg/kg/injection, schedule: Q01DX009 (ip), vehicle: other
  T/C: 120 % of control
dose: 2.5 mg/kg/injection, schedule: Q01DX001 (ip), vehicle: other
  T/C: 121 % of control
dose: 2.5 mg/kg/injection, schedule: Q01DX001 (iv), vehicle: other
  T/C: 109 % of control
dose: 2.5 mg/kg/injection, schedule: Q01DX005 (iv), vehicle: clinical formulation
  T/C: 115 % of control and 121 % of control
dose: 2.5 mg/kg/injection, schedule: Q01DX005 (iv), vehicle: other
  T/C: 109 % of control
dose: 2.5 mg/kg/injection, schedule: Q01DX005 (oral), vehicle: other
  T/C: 100 % of control
dose: 2.5 mg/kg/injection, schedule: Q01DX009 (ip), vehicle: clinical formulation
  T/C: 152 % of control and 154 % of control and 180 % of control
dose: 2.5 mg/kg/injection, schedule: Q01DX009 (ip), vehicle: other
  T/C: 151 % of control
dose: 2.5 mg/kg/injection, schedule: Q01DX009 (ip), vehicle: saline with Tween-80
  T/C: 167 % of control
dose: 2.5 mg/kg/injection, schedule: Q01DX009 (oral), vehicle: other
  T/C: 109 % of control
dose: 3.0 mg/kg/injection, schedule: Q01DX005 (iv), vehicle: suspension in saline
  T/C: 105 % of control
dose: 3.0 mg/kg/injection, schedule: Q01DX009 (ip), vehicle: Klucel (hydroxypropylcellulose) (HPC)
  T/C: 166 % of control and 169 % of control
dose: 3.0 mg/kg/injection, schedule: Q01DX009 (ip), vehicle: saline with Tween-80
  T/C: 163 % of control
dose: 3.0 mg/kg/injection, schedule: Q01DX009 (oral), vehicle: Klucel (hydroxypropylcellulose) (HPC)
  T/C: 108 % of control
dose: 3.0 mg/kg/injection, schedule: Q01DX009 (oral), vehicle: saline
  T/C: 102 % of control
dose: 5.0 mg/kg/injection, schedule: Q01DX001 (iv), vehicle: other
  T/C: 105 % of control
dose: 5.0 mg/kg/injection, schedule: Q01DX001 (oral), vehicle: other
  T/C: 99 % of control
dose: 5.0 mg/kg/injection, schedule: Q01DX005 (iv), vehicle: clinical formulation
  T/C: 156 % of control
dose: 5.0 mg/kg/injection, schedule: Q01DX005 (iv), vehicle: other
  T/C: 113 % of control
dose: 5.0 mg/kg/injection, schedule: Q01DX005 (oral), vehicle: other
  T/C: 99 % of control
dose: 5.0 mg/kg/injection, schedule: Q01DX009 (ip), vehicle: other
  T/C: 175 % of control
dose: 5.0 mg/kg/injection, schedule: Q01DX009 (oral), vehicle: other
  T/C: 114 % of control
dose: 6.0 mg/kg/injection, schedule: Q01DX005 (ip), vehicle: suspension in saline
  T/C: 164 % of control
dose: 6.0 mg/kg/injection, schedule: Q01DX005 (iv), vehicle: suspension in saline
  T/C: 108 % of control
dose: 6.0 mg/kg/injection, schedule: Q01DX009 (ip), vehicle: other
  T/C: 157 % of control
dose: 6.0 mg/kg/injection, schedule: Q01DX009 (oral), vehicle: Klucel (hydroxypropylcellulose) (HPC)
  T/C: 102 % of control
dose: 6.0 mg/kg/injection, schedule: Q01DX009 (oral), vehicle: saline
  T/C: 108 % of control
dose: 6.25 mg/kg/injection, schedule: Q01DX009 (oral), vehicle: Klucel (hydroxypropylcellulose) (HPC)
  T/C: 112 % of control and 113 % of control
dose: 8.0 mg/kg/injection, schedule: Q01DX001 (ip), vehicle: suspension in saline
  T/C: 108 % of control and 116 % of control
dose: 10.0 mg/kg/injection, schedule: Q01DX001 (iv), vehicle: other
  T/C: 116 % of control
dose: 10.0 mg/kg/injection, schedule: Q01DX001 (oral), vehicle: other
  T/C: 107 % of control
dose: 10.0 mg/kg/injection, schedule: Q01DX005 (iv), vehicle: clinical formulation
  T/C: 104 % of control
dose: 10.0 mg/kg/injection, schedule: Q01DX005 (oral), vehicle: other
  T/C: 112 % of control
dose: 10.0 mg/kg/injection, schedule: Q01DX009 (ip), vehicle: clinical formulation
  T/C: 170 % of control
dose: 10.0 mg/kg/injection, schedule: Q01DX009 (ip), vehicle: saline with Tween-80
  T/C: 121 % of control
dose: 10.0 mg/kg/injection, schedule: Q01DX009 (oral), vehicle: other
  T/C: 116 % of control
dose: 12.0 mg/kg/injection, schedule: Q01DX005 (ip), vehicle: saline
  T/C: 163 % of control and 167 % of control
dose: 12.0 mg/kg/injection, schedule: Q01DX009 (ip), vehicle: Klucel (hydroxypropylcellulose) (HPC)
  T/C: 121 % of control
dose: 12.0 mg/kg/injection, schedule: Q01DX009 (ip), vehicle: other
  T/C: 168 % of control
dose: 12.0 mg/kg/injection, schedule: Q01DX009 (oral), vehicle: Klucel (hydroxypropylcellulose) (HPC)
  T/C: 117 % of control
dose: 12.0 mg/kg/injection, schedule: Q01DX009 (oral), vehicle: other
  T/C: 100 % of control
dose: 12.0 mg/kg/injection, schedule: Q01DX009 (oral), vehicle: saline
  T/C: 110 % of control
dose: 12.5 mg/kg/injection, schedule: Q01DX009 (oral), vehicle: Klucel (hydroxypropylcellulose) (HPC)
  T/C: 115 % of control and 120 % of control
dose: 15.0 mg/kg/injection, schedule: Q01DX009 (ip), vehicle: Klucel (hydroxypropylcellulose) (HPC)
  T/C: 100 % of control
dose: 16.0 mg/kg/injection, schedule: Q01DX001 (ip), vehicle: suspension in saline
  T/C: 104 % of control
dose: 20.0 mg/kg/injection, schedule: Q01DX001 (ip), vehicle: other
  T/C: 151 % of control
dose: 20.0 mg/kg/injection, schedule: Q01DX001 (iv), vehicle: other
  T/C: 122 % of control
dose: 20.0 mg/kg/injection, schedule: Q01DX001 (oral), vehicle: other
  T/C: 104 % of control
dose: 20.0 mg/kg/injection, schedule: Q01DX005 (oral), vehicle: other
  T/C: 109 % of control
dose: 24.0 mg/kg/injection, schedule: Q01DX005 (ip), vehicle: saline
  T/C: 181 % of control
dose: 24.0 mg/kg/injection, schedule: Q01DX005 (iv), vehicle: suspension in saline
  T/C: 117 % of control
dose: 24.0 mg/kg/injection, schedule: Q01DX009 (oral), vehicle: Klucel (hydroxypropylcellulose) (HPC)
  T/C: 122 % of control
dose: 24.0 mg/kg/injection, schedule: Q01DX009 (oral), vehicle: other
  T/C: 107 % of control
dose: 24.0 mg/kg/injection, schedule: Q01DX009 (oral), vehicle: saline
  T/C: 113 % of control
dose: 25.0 mg/kg/injection, schedule: Q01DX001 (ip), vehicle: Klucel (hydroxypropylcellulose) (HPC)
  T/C: 168 % of control
dose: 25.0 mg/kg/injection, schedule: Q01DX001 (ip), vehicle: saline
  T/C: 175 % of control
dose: 32.0 mg/kg/injection, schedule: Q01DX001 (ip), vehicle: suspension in saline
  T/C: 101 % of control
dose: 32.0 mg/kg/injection, schedule: Q01DX001 (oral), vehicle: suspension in saline
  T/C: 100 % of control
dose: 40.0 mg/kg/injection, schedule: Q01DX001 (ip), vehicle: other
  T/C: 181 % of control
dose: 40.0 mg/kg/injection, schedule: Q01DX001 (oral), vehicle: other
  T/C: 101 % of control
dose: 40.0 mg/kg/injection, schedule: Q01DX005 (oral), vehicle: other
  T/C: 118 % of control
dose: 40.0 mg/kg/injection, schedule: Q01DX009 (oral), vehicle: other
  T/C: 115 % of control
dose: 48.0 mg/kg/injection, schedule: Q01DX009 (oral), vehicle: Klucel (hydroxypropylcellulose) (HPC)
  T/C: 119 % of control
dose: 48.0 mg/kg/injection, schedule: Q01DX009 (oral), vehicle: other
  T/C: 103 % of control
dose: 48.0 mg/kg/injection, schedule: Q01DX009 (oral), vehicle: saline
  T/C: 119 % of control
dose: 50.0 mg/kg/injection, schedule: Q01DX009 (oral), vehicle: Klucel (hydroxypropylcellulose) (HPC)
  T/C: 155 % of control
dose: 64.0 mg/kg/injection, schedule: Q01DX001 (ip), vehicle: saline
  T/C: 163 % of control
dose: 64.0 mg/kg/injection, schedule: Q01DX001 (ip), vehicle: suspension in saline
  T/C: 101 % of control
dose: 64.0 mg/kg/injection, schedule: Q01DX001 (oral), vehicle: saline
  T/C: 99 % of control
dose: 64.0 mg/kg/injection, schedule: Q01DX001 (oral), vehicle: suspension in saline
  T/C: 106 % of control and 108 % of control
dose: 96.0 mg/kg/injection, schedule: Q01DX009 (oral), vehicle: other
  T/C: 107 % of control
dose: 100.0 mg/kg/injection, schedule: Q01DX009 (oral), vehicle: Klucel (hydroxypropylcellulose) (HPC)
  T/C: 120 % of control
dose: 128.0 mg/kg/injection, schedule: Q01DX001 (oral), vehicle: saline
  T/C: 99 % of control
dose: 128.0 mg/kg/injection, schedule: Q01DX001 (oral), vehicle: suspension in saline
  T/C: 102 % of control and 109 % of control
dose: 256.0 mg/kg/injection, schedule: Q01DX001 (oral), vehicle: saline
  T/C: 107 % of control
dose: 256.0 mg/kg/injection, schedule: Q01DX001 (oral), vehicle: suspension in saline
  T/C: 103 % of control and 105 % of control
